In paper PMC3310290 (Bioconjugate Chemistry, 2012):
Positions of bridges follow the written chain, without caps; N, C: chain ends. Residues, ends and D or L forms follow the SMILES beside them. *: point of attachment. 5FAM = O=C1OC2(c3ccc(O)cc3Oc3cc(O)ccc32)c2ccc(C(=O)*)cc21; DTPA = O=C(O)CN(CCN(CC(=O)O)CC(=O)O)CCN(CC(=O)O)CC(=O)*; Ahx = NCCCCCC(=O)O

Experiments:
[1] = target: T1, fibrin (Homo sapiens, UniProt P02671+P02675+P02679); conditions: ref [15]; cited from earlier work
T1 sequence (P02671 36-866 limits assumed): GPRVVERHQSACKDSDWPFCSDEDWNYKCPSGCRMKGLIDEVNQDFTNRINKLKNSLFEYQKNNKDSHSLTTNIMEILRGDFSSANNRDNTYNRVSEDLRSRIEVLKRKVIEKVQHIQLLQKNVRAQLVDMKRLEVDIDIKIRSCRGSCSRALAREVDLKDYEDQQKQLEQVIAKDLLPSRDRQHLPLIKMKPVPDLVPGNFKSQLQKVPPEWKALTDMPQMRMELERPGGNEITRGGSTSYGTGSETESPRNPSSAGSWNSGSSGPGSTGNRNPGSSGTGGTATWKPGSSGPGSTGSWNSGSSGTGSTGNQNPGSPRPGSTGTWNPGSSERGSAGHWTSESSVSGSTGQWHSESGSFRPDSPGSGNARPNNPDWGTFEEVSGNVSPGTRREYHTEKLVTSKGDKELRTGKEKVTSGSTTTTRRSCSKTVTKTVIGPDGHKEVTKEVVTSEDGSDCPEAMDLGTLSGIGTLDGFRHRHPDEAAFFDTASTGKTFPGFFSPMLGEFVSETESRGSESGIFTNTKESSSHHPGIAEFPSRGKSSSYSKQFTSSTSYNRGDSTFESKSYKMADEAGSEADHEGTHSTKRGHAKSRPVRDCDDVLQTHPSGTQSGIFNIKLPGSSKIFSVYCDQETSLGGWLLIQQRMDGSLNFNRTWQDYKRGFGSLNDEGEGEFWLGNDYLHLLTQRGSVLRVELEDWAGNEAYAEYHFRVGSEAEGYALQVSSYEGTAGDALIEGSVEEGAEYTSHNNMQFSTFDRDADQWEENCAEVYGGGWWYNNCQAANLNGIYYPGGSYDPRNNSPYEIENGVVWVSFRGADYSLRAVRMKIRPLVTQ
T1 sequence (P02675 45-491 limits assumed): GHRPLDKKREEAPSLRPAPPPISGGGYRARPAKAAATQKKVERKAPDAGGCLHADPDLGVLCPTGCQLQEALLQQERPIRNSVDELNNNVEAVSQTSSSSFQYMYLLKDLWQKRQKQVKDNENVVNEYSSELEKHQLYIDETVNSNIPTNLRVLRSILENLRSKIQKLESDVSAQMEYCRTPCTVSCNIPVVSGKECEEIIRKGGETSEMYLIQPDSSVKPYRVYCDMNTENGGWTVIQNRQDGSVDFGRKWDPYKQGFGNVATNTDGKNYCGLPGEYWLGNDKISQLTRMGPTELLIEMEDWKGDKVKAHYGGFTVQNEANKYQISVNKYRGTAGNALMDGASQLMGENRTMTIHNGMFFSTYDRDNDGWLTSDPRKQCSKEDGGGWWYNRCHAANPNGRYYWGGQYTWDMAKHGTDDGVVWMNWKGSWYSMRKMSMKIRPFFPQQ
T1 sequence (P02679 27-433 limits assumed): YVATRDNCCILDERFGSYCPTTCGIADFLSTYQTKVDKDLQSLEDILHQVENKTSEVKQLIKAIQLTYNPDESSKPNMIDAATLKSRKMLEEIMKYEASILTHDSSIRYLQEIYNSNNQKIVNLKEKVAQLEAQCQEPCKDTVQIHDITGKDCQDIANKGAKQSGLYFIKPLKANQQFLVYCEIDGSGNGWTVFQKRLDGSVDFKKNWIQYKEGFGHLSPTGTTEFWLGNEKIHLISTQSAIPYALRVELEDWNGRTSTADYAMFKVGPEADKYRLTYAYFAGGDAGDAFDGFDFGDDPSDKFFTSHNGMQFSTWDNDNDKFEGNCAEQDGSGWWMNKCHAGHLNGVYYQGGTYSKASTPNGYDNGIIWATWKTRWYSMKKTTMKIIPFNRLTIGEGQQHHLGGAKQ

[2] = target: T2, fibrinogen (Homo sapiens, UniProt P02671+P02675+P02679); assay: Fluorescence polarization, binding to fibrinogen; conditions: fluorescence anisotropy
T2 sequence (P02671 20-629 limits assumed): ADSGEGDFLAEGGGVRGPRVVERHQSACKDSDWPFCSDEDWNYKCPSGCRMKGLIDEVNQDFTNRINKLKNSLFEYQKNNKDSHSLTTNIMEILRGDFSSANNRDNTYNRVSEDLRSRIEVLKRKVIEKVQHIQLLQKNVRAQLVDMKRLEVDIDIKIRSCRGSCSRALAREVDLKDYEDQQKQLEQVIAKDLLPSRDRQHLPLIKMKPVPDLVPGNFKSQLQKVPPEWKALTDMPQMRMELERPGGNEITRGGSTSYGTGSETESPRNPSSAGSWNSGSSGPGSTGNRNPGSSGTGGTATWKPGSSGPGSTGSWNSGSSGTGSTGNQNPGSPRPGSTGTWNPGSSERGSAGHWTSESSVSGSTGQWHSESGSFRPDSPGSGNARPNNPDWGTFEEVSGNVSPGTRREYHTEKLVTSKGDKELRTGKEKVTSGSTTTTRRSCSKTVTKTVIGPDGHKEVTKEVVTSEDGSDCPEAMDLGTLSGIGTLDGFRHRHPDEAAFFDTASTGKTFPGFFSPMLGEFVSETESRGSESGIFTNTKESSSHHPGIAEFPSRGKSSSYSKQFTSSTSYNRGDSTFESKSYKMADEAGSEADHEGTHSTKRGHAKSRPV
T2 sequence (P02675 31-491): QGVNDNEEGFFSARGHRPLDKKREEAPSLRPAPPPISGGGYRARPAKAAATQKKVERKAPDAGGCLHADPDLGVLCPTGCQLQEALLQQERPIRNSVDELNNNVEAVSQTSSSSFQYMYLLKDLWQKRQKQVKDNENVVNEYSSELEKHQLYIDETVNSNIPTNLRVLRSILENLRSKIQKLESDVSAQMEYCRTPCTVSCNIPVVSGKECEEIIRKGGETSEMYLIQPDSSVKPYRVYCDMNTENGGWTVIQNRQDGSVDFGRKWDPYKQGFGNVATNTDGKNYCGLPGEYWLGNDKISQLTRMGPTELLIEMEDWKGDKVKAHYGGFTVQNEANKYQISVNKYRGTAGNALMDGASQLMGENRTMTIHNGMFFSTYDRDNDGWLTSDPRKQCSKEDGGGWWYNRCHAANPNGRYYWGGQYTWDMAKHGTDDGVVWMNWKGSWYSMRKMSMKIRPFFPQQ
T2 sequence (P02679 27-433 limits assumed): T1 sequence (P02679 27-433 limits assumed)

[3] = target: T1, fibrin; assay: Solvent water 1H relaxation rate; assay type: physicochemical; conditions: 30 μM fibrin, 0.47T, 37°C

For “DTPA-GYLCGDYTLCPD-NH2 ({DTPA}-GYLCGDYTLCPD-NH2; not fully specified (bridges); cysteine pairing not given here)”, the “fibrin binding (in words)” value [1] is given as “No measurable fibrin binding”.

For `CC[C@H](C)[C@H](NC(=O)[C@H](Cc1c[nH]c2ccccc12)NC(=O)[C@@H]1CSSC[C@H](NC(=O)[C@H](CCC(=O)O)NC(=O)[C@H](Cc2c[nH]c3ccccc23)NC(=O)[C@H](CCC(N)=O)NC(=O)CCCCCNC(=O)c2ccc3c(c2)C(=O)OC32c3ccc(O)cc3Oc3cc(O)ccc32)C(=O)N2CCC[C@H]2C(=O)N[C@@H](Cc2ccc(O)cc2)C(=O)NCC(=O)N[C@@H](CC(C)C)C(=O)N1)C(=O)N[C@@H](CCC(N)=O)C(N)=O` [Tn6-2b-Fl, Fluor-Aca-QWECPYGLCWIQ] ({5FAM-Ahx}-QWECPYGLCWIQ-NH2; disulfide 4-9), the “fibrinogen binding weaker than to DD(E)” value [2] was 400 fold.

In the case of `O=C([O-])CN(CCN(CC(=O)[O-])CC(=O)O)CCN(CC(=O)[O-])CC(=O)O.[Gd+3]` [GdDTPA, diethylenetriaminepentaaceto gadolinium(III), reference compound], the “enhancement of 1/T1 in fibrin gel compared to buffer” value [3] is reported as “no enhancement of 1/T1”.
